Legend:
IAGlc synthase [1] = target: T1, IAGlc synthase (Zea mays, UniProt Q41819); test: coupled spectrophotometric assay, […] acceptor (relative activity); assay type: biochemical
T1 construct: gene IAGLU; recombinant, N-terminally His-tagged, expressed in E. coli
T1 sequence (Q41819 1-471): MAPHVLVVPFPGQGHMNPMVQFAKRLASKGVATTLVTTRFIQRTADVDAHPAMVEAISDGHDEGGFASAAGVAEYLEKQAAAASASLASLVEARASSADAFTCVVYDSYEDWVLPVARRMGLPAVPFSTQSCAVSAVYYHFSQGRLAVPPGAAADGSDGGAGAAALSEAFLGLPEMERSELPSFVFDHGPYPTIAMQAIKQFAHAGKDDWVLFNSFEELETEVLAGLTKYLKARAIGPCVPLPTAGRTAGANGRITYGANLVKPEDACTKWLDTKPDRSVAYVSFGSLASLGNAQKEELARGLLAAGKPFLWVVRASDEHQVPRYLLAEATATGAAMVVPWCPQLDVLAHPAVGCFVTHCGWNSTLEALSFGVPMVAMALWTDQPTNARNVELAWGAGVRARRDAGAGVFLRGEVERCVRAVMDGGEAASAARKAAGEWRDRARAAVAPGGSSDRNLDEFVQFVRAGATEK

IAGlc synthase [2] = target: T1, IAGlc synthase; test: […]IAA glucosylation TLC radioassay, Dixon plot; assay type: biochemical

Structure (SMILES)	Relative Activity (%) (IAGlc synthase [1])	Ki (IAGlc synthase [2]) [µM]
O=C(O)CCc1c[nH]c2ccccc12 [IPA, indole-3-propionic acid]	49.7	
O=C(O)CCCc1c[nH]c2ccccc12 [IBA, indole-3-butyric acid]	66	
O=C(O)COc1ccc(Cl)cc1Cl [2,4-D, 2,4-dichlorophenoxyacetic acid]		117 ± 10

— publication PMC8037650, “Biochemical Characterization of Recombinant UDPG-Dependent IAA Glucosyltransferase from Maize (Zea mays)” (International Journal of Molecular Sciences, 2021)
